Results published in US11046701B2, “Salt of cetagliptin, preparation method thereof, pharmaceutical composition, and use thereof” (CGENETECH (SUZHOU, CHINA) CO., LTD., priority 2018, dated 2021).
In brackets after ≈: the same amount, converted by molar mass. Several values for one entry are separate records, joined by “and”; a condition that tells them apart may be missing. Equal values may be shown once.

How the values were obtained:
[1] = Rough solubility of the amorphous phosphate in solvents; type: physicochemical; conditions: thermodynamic from solid
Experimental: The rough solubility of the amorphous phosphate prepared in Example 1 was measured. During the test, about 2 mg of the amorphous phosphate prepared in Example 1 was weighed and put into a 3 mL glass bottle, the solvents listed in the following Table 8 were added separately at an amount of 20 microliters/each time, and it was observed whether the sample was completely dissolved. If the sample was still not dissolved completely after 2.0 mL of the solvents was added, the test ended.

[2] = PK/PD experiment of ICR mice: plasma concentration; type: in vivo, CD-1 (ICR) mice; conditions: CD-1 (ICR), mouse, oral dose 3 mg/kg
Experimental: (§1) Experimental animals: CD-1 (ICR) mice aged for 4 weeks and weighed for about 18-22 g.
(§2) Grouping and administration scheme: the mice were fed adaptively, randomly grouped according to the weight on the day before experiment, and fasted overnight. […] After the experimental grouping, the group provided separately for detecting the initial basic value of DPPIV was carried out blood sampling, and other animals were intragastrically administrated with the drug at an administration volume of 10 mL/kg, the blood was sampled after the administration, and all other animals were stimulated with glucose administration; the blood was sampled at 20 min, 40 min, 60 min and 120 min after the glucose administration, respectively, and the plasma concentration and the DPPIV activity were detected by using plasma.
Research on pharmacodynamics-plasma concentration correlation: blood samples were collected at time points of 1 h, 1.33 h, 1.67 h, 2 h and 3 h after administration, and the plasma concentration was measured. The drug exposure value (AUCeff0-3h) of the DPPIV-P1 increased with the increase of dose, which was 16.09 ng·h/mL, 52.65 ng·h/mL, 162.3 ng·h/mL and 542.28 ng·h/mL, respectively.

[3] = Weight of ICR mice of each group; type: in vivo, CD-1 (ICR) mice; conditions: individual animals, 3 mg/kg group, 3 mg/kg
Experimental: as §1, §2

DIO mice [4] = experiment: Long-term administration on DIO mice: fasting blood glucose; type: in vivo; conditions: for Fasting blood glucose: 30 mg/kg daily intragastric
Experimental: (§3) A solution with a certain concentration was prepared from the crystal form B of the phosphate, and the administration volume was 10 mL/kg.
(§4) Experimental animals: C57BL16 mice aged for 5 weeks and weighed for about 13-16 g.
(§5) Grouping and administration scheme: the mice were fed adaptively and divided into a normal control group and a model group which were fed with high-fat feed (Research diets, D 12492). When the fasting blood glucose of the mice was greater than or equal to 7 mM, it was considered that the mice had become DIO mice. The DIO mice could be selected for the hypoglycemic effect test. The DIO mice were stratified and randomly grouped according to the blood glucose and the weight. […] The weight and the fasting blood glucose were measured weekly; the food amount, the remaining food amount and the food intake were recorded; the mice were fasted overnight at the end of administration, the blood was sampled, and the free fatty acid (NEFA), total cholesterol (TCHO), triglyceride (TG), insulin and DPPIV activity were measured by using serum.

DIO mice [5] = experiment: Long-term administration on DIO mice: serum metabolic parameters (NEFA, TCHO, TG, insulin); type: in vivo, C57BL16 mice; conditions: 30 mg/kg, end of long-term administration
Description: Experimental animals: […] Table 18 was a total data table of the metabolic parameters.

[6] = Long-term administration on DIO mice: weight, food intake, tolerance
Experimental: as §3, §4, §5

[7] = XRPD of phosphate crystal form A after heating; type: physicochemical; conditions: heated for 48 h at 50° C.
Description: After detection, the obtained solid was the crystal form A of phosphate, its XRPD data was shown in Table 9 below, its XRPD pattern was shown in FIG. 4, and its TGA chart and DSC chart were shown in FIG. 5. […] (peak temperatures) before decomposition.

Work on C[C@@H]1c2cnc(C(F)(F)F)n2CCN1C(=O)C[C@H](N)Cc1cc(F)c(F)cc1F [Example 1, (8R)-7-[(3R)-3-amino-1-oxo-4-(2,4,5-trifluorophenyl)butyl]-5,6,7,8-tetrahydro-8-methyl-3-(trifluoromethyl)imidazo[1,5-a]pyrazine] yielded a solubility ([1]; 1,4-Dioxane, organic solvent or mixture) of 2.7 to 2.9 mg/mL (≈ 6.42 to 6.9 mM), a solubility ([1]; 2-MeTHF, organic solvent or mixture) of 38.3 to 57.5 mg/mL (≈ 91.1 to 137 mM) and a solubility ([1]; ACN, organic solvent or mixture) of 57.5 to 115 mg/mL (≈ 137 to 274 mM). For the same molecule, the solubility ([1]; Acetic acid, organic solvent or mixture) was under 54 mg/mL, the solubility ([1]; Acetone, organic solvent or mixture) was 47.5 to 95 mg/mL (≈ 113 to 226 mM) and the solubility ([1]; CHCl3, organic solvent or mixture) was under 1.3 mg/mL. It also gave a solubility ([1]; DCM, organic solvent or mixture) of under 1.1 mg/mL, a solubility ([1]; DMF, organic solvent or mixture) of under 42 mg/mL and a solubility ([1]; DMSO, organic solvent or mixture) of 46 to 115 mg/mL (≈ 109 to 274 mM). For the same molecule, the solubility ([1]; EtOAc, organic solvent or mixture) was under 1.1 mg/mL, the solubility ([1]; EtOH, organic solvent or mixture) was 57.5 to 115 mg/mL (≈ 137 to 274 mM) and the solubility ([1]; Heptane, organic solvent or mixture) was under 1.3 mg/mL. The solubility ([1]; Hexane, organic solvent or mixture) was under 1.2 mg/mL, the solubility ([1]; IPA, organic solvent or mixture) was 38.3 to 57.5 mg/mL (≈ 91.1 to 137 mM) and the solubility ([1]; IPAc, organic solvent or mixture) was under 1.1 mg/mL. For the same molecule, the solubility ([1]; MEK, organic solvent or mixture) was 72.5 to 145 mg/mL (≈ 172 to 345 mM), the solubility ([1]; MIBK, organic solvent or mixture) was under 1 mg/mL and the solubility ([1]; MTBE, organic solvent or mixture) was under 0.9 mg/mL. The solubility ([1]; MeOH, organic solvent or mixture) was 67.5 to 135 mg/mL (≈ 161 to 321 mM), the solubility ([1]; NMP, organic solvent or mixture) was 20 to 40 mg/mL (≈ 47.6 to 95.2 mM) and the solubility ([1]; THF, organic solvent or mixture) was 46 to 115 mg/mL (≈ 109 to 274 mM). The solubility ([1]; Toluene, organic solvent or mixture) was under 1 mg/mL, the solubility ([1]; cyclohexanol, organic solvent or mixture) was under 1 mg/mL and the solubility ([1]; isoamyl alcohol, organic solvent or mixture) was 10 to 13.3 mg/mL (≈ 23.8 to 31.6 mM). For the same molecule, the solubility ([1]; isobutyl alcohol, organic solvent or mixture) was 3.8 to 4.7 mg/mL (≈ 9.04 to 11.2 mM), the solubility ([1]; n-amyl alcohol, organic solvent or mixture) was 6.8 to 8.5 mg/mL (≈ 16.2 to 20.2 mM) and the solubility ([1]; n-butyl alcohol, organic solvent or mixture) was 60 to 120 mg/mL (≈ 143 to 285 mM). For the same molecule, the solubility ([1]; organic solvent or mixture, 1- Octanol) was under 0.9 mg/mL, the solubility ([1]; sec-butyl alcohol, organic solvent or mixture) was under 1 mg/mL and the solubility ([1]; water, H2O) was 21 to 42 mg/mL (≈ 50 to 99.9 mM).
N[C@@H](CC(=O)N1CCn2c(nnc2C(F)(F)F)C1)Cc1cc(F)c(F)cc1F [Sitagliptin phosphate, reference compound] showed a concentration at 1 h ([2]; 1 hour) of 184 ± 10.2 ng/mL, a concentration at 1.33 h ([2]; 1.33 hours) of 159 ± 46.6 ng/mL and a concentration at 1.67 h ([2]; 1.67 hours) of 152 ± 15.1 ng/mL. For the same molecule, the concentration at 2 h ([2]; 2 hours) was 142 ± 19.6 ng/mL, the concentration at 3 h ([2]; 3 hours) was 97.9 ± 35.5 ng/mL and the AUC ([2]; read-out: Drug exposure (AUCeff0-3 h)) was 370 ng·h/mL. The weight [3] was 24.0 (3×) and 26.0 (2×) and 25.1 (2×) and 25.0 and 24.6 (2×) and 24.4 and 24.3 and 22.9 and 22.2 and 26.5, the Fasting blood glucose (DIO mice [4]; D 1) was 8.3 ± 1.1 mmol/L and the Fasting blood glucose (DIO mice [4]; D 3) was 6.8 ± 1.1 mmol/L. For the same molecule, the Fasting blood glucose (DIO mice [4]; D 7) was 8.0 ± 1.2 mmol/L, the Fasting blood glucose (DIO mice [4]; D 14) was 8.5 ± 1.3 mmol/L and the Fasting blood glucose (DIO mice [4]; D 21) was 8.9 ± 0.9 mmol/L. For the same molecule, the Fasting blood glucose (DIO mice [4]; D 28) was 8.6 ± 0.9 mmol/L, the “fasting blood glucose data after the drug was administrated for 28 days” value (DIO mice [4]; individual animals, 30 mg/kg) was 8.9 and 8.3 and 8.4 and 7.8 and 9.1 and 8.2 and 9.8 and 7.9 (2×) and 8 and 10.8 and the “decrease of insulin compared with the model control group” value (DIO mice [5]) was 58.3%. For the same molecule, the “decrease of total cholesterol (TCHO) compared with the model control group” value (DIO mice [5]) was 25.4%, the “Serum NEFA” value (DIO mice [5]; fasted overnight) was 1.11 ± 0.13 mmol/L and the “Serum TCHO” value (DIO mice [5]; fasted overnight) was 3.99 ± 0.798 mmol/L. The “Serum TG” value (DIO mice [5]; fasted overnight) was 0.94 ± 0.15 mmol/L, the Serum insulin (DIO mice [5]; fasted overnight) was 2.2 ± 1.38 ng/mL and the Food intake ([6]; 30 mg/kg) was 2.2 ± 5.0 g/day. The weight ([6]; 30 mg/kg daily, D1) was 37.2 ± 4.4 g, the weight ([6]; 30 mg/kg daily, D7) was 35.3 ± 3.7 g and the weight ([6]; 30 mg/kg daily, D14) was 34.4 ± 4.9 g. The weight ([6]; 30 mg/kg daily, D21) was 37.2 ± 5.3 g, the weight ([6]; 30 mg/kg daily, D28) was 39.5 ± 5.0 g and the weight ([6]; 30 mg/kg, total data table of metabolic parameters (end of experiment)) was 39.5 ± 5.0 g. The “weight after the drug was administrated for 28 days” value ([6]; individual animals, 30 mg/kg) was 39.9 (2×) and 31.0 and 34.8 and 41.6 and 32.2 and 40.5 and 40.8 and 45.6 and 47.1 and 41.0.
In the case of C[C@@H]1c2cnc(C(F)(F)F)n2CCN1C(=O)C[C@H](N)Cc1cc(F)c(F)cc1F [phosphate crystal form A, (8R)-7-[(3R)-3-amino-1-oxo-4-(2,4,5-trifluorophenyl)butyl]-5,6,7,8-tetrahydro-8-methyl-3-(trifluoromethyl)imidazo[1,5-a]pyrazine], the “crystal form after heating (XRPD)” value [7] is reported as “transformed into a phosphate crystal form B”.
